Laboratory results reported in ChEMBL document CHEMBL5034014, “Melanocortin 1 Receptor Agonists Based on a Bivalent, Bicyclic Peptide Framework” (J Med Chem, 2021).
Bridge positions count the residues as written; N and C are the ends. Square brackets hold non-standard residues; d marks the D form. Peptide text beside a SMILES is read from it. NMeW = CN[C@@H](Cc1c[nH]c2ccccc12)C(=O)O; NMeR = CN[C@@H](CCCNC(=N)N)C(=O)O

Columns and labels:
Melanocortin receptor 5 = Melanocortin receptor 5 (Homo sapiens, UniProt P33032); assay: Displacement of [125I]-NDP-alpha-MSH from human MC5R expressed in HEK2936E cell membrane measured after 16-23 hrs by 1450 microbeta trilux scintillation proximity assay; assay type: cell membranes
Melanocortin receptor 3 [1] = molecular target: T1, Melanocortin receptor 3 (Homo sapiens, UniProt P41968); assay: Displacement of [125I]-NDP-alpha-MSH from human MC3R expressed in HEK2936E cell membrane measured after 16-23 hrs by 1450 microbeta trilux scintillation proximity assay; assay type: cell membranes
Melanocortin receptor 3 [2] = molecular target: T1, Melanocortin receptor 3; assay: Agonist activity at human melanocortin receptor 3 expressed in human T-REx-293 cells assessed as stimulation of intracellular cAMP accumulation incubated for 45 mins by LANCE cAMP assay; assay type: functional, cell-based
[3] = molecular target: T2, Melanocyte-stimulating hormone receptor (Homo sapiens, UniProt Q01726); assay: Agonist activity at human melanocortin receptor 1 expressed in human T-Rex-293 cells assessed as stimulation of intracellular cAMP accumulation incubated for 45 mins by LANCE cAMP assay; assay type: functional, cell-based
Melanocortin receptor 4 [4] = molecular target: T3, Melanocortin receptor 4 (Homo sapiens, UniProt P32245); assay: Agonist activity at human melanocortin receptor 4 expressed in human T-REx-293 cells using low doxycycline assessed as stimulation of intracellular cAMP accumulation incubated for 45 mins by LANCE cAMP assay; assay type: functional, cell-based
Melanocortin receptor 4 [5] = molecular target: T3, Melanocortin receptor 4; assay: Agonist activity at human melanocortin receptor 4 expressed in human T-REx-293 cells using high doxycycline assessed as stimulation of intracellular cAMP accumulation incubated for 45 mins by LANCE cAMP assay; assay type: functional
Melanocortin receptor 4 [6] = molecular target: T3, Melanocortin receptor 4; assay: Displacement of [125I]-NDP-alpha-MSH from human MC4R expressed in HEK2936E cell membrane measured after 16-23 hrs by 1450 microbeta trilux scintillation proximity assay; assay type: cell membranes
[7] = molecular target: T2, Melanocyte-stimulating hormone receptor; assay: Displacement of [125I]-NDP-alpha-MSH from human MC1R expressed in HEK2936E cell membrane measured after 16-23 hrs by 1450 microbeta trilux scintillation proximity assay; assay type: cell membranes

T3 sequence (P32245 whole entry): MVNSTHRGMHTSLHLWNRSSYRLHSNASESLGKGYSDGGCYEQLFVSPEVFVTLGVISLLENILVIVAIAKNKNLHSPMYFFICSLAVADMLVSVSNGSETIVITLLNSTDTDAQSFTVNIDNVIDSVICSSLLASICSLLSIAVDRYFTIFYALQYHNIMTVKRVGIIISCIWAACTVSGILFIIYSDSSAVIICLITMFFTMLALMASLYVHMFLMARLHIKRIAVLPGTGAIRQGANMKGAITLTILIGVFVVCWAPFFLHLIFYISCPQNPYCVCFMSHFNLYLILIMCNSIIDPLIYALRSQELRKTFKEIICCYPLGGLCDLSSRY
Chain of Melanocortin receptor 5 (P33032 whole entry): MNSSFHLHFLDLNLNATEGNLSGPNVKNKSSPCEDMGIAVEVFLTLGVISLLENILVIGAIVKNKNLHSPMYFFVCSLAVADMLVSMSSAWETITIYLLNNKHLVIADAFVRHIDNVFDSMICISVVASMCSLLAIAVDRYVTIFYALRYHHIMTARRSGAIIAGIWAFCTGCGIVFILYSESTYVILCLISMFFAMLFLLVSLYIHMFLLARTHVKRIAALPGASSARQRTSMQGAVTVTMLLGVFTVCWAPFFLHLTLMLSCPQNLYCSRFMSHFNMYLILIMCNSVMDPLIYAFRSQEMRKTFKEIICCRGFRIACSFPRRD
T2 sequence (Q01726 whole entry): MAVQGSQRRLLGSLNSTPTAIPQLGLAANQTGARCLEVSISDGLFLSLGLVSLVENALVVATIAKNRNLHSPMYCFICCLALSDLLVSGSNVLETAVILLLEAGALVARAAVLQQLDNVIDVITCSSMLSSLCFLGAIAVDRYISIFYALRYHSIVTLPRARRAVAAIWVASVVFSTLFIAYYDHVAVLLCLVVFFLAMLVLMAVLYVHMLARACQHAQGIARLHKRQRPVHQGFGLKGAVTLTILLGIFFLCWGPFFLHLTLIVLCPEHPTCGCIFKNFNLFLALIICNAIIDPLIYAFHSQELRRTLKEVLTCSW
T1 sequence (P41968 whole entry): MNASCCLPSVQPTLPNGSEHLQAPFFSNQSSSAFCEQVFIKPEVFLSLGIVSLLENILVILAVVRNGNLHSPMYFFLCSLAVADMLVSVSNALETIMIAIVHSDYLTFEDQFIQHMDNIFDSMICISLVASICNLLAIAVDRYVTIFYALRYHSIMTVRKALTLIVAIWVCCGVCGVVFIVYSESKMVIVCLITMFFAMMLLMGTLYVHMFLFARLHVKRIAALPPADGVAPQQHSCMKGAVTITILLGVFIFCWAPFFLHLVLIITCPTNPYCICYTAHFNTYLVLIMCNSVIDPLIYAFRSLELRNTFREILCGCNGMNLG

SMILES	IC50 (Melanocortin receptor 5) [nM]	Ki (Melanocortin receptor 3 [1]) [nM]	EC50 (Melanocortin receptor 3 [2]) [nM]	EC50 [3] [nM]	EC50 (Melanocortin receptor 4 [4]) [nM]	EC50 (Melanocortin receptor 4 [5]) [nM]	Ki (Melanocortin receptor 4 [6]) [nM]	Ki [7] [nM]
CC[C@H](C)[C@@H]1NC(=O)[C@@H]2CCCN2C(=O)[C@H](Cc2c[nH]c3ccccc23)NC(=O)[C@H](CCCNC(=N)N)N(C)C(=O)[C@@H](Cc2ccccc2)NC(=O)[C@H](Cc2c[nH]cn2)NC(=O)[C@H]([C@@H](C)O)NC(=O)[C@@H]2CSSC[C@H](NC1=O)C(=O)N[C@@H](Cc1c[nH]cn1)C(=O)N[C@H](Cc1ccccc1)C(=O)N[C@@H](CCCCN)C(=O)N[C@@H](Cc1c[nH]c3ccccc13)C(=O)N[C@@H](C)C(=O)N2	631	708	38.9	0.832	52.5	3.16	72.4	11.7
CC[C@H](C)[C@@H]1NC(=O)[C@@H]2CCCN2C(=O)[C@H](Cc2c[nH]c3ccccc23)NC(=O)[C@H](CCCNC(=N)N)N(C)C(=O)[C@@H](Cc2ccccc2)NC(=O)[C@H](Cc2c[nH]cn2)NC(=O)[C@H]([C@@H](C)O)NC(=O)[C@@H]2CSSC[C@H](NC1=O)C(=O)N[C@@H](Cc1c[nH]cn1)C(=O)N[C@@H](C)C(=O)N[C@@H](CCCNC(=N)N)C(=O)N[C@@H](Cc1c[nH]c3ccccc13)C(=O)N[C@@H](CCCNC(=N)N)C(=O)N2	676	389	6.61	0.794	3.47	0.302	10.7	2.82
C[C@@H]1NC(=O)[C@H](Cc2c[nH]c3ccccc23)NC(=O)[C@H](CCCNC(=N)N)NC(=O)[C@@H](Cc2ccccc2)NC(=O)[C@H](Cc2c[nH]cn2)NC(=O)[C@@H]2CSSC[C@H](NC1=O)C(=O)N[C@@H]([C@@H](C)O)C(=O)N[C@@H](Cc1c[nH]cn1)C(=O)N[C@H](Cc1ccccc1)C(=O)N(C)[C@@H](CCCNC(=N)N)C(=O)N[C@@H](Cc1c[nH]c3ccccc13)C(=O)N1CCC[C@H]1C(=O)N[C@@H](C)C(=O)N2	550	135	4.07	1.07				8.13
CC[C@H](C)[C@@H]1NC(=O)[C@@H]2CCCN2C(=O)[C@H](Cc2c[nH]c3ccccc23)NC(=O)[C@H](CCCNC(=N)N)N(C)C(=O)[C@@H](Cc2ccccc2)NC(=O)[C@H](Cc2c[nH]cn2)NC(=O)[C@H]([C@@H](C)O)NC(=O)[C@@H]2CSSC[C@H](NC1=O)C(=O)N[C@@H](Cc1c[nH]cn1)C(=O)N[C@H](Cc1ccccc1)C(=O)N[C@@H](C)C(=O)N[C@@H](Cc1c[nH]c3ccccc13)C(=O)N[C@@H](CCCNC(=N)N)C(=O)N2	589	1150	56.2	2.24	44.7	2.19	91.2	15.1
CC[C@H](C)[C@@H]1NC(=O)[C@@H]2CCCN2C(=O)[C@H](Cc2c[nH]c3ccccc23)NC(=O)[C@H](CCCNC(=N)N)N(C)C(=O)[C@@H](Cc2ccccc2)NC(=O)[C@H](Cc2c[nH]cn2)NC(=O)[C@H]([C@@H](C)O)NC(=O)[C@@H]2CSSC[C@H](NC1=O)C(=O)N[C@@H](Cc1c[nH]cn1)C(=O)N[C@H](Cc1ccccc1)C(=O)N[C@@H](CCC(=O)O)C(=O)N[C@@H](Cc1c[nH]c3ccccc13)C(=O)N[C@@H](CCCNC(=N)N)C(=O)N2	2690	5010	95.5	3.63	105	3.89	309	41.7
CC[C@H](C)[C@@H]1NC(=O)[C@@H]2CCCN2C(=O)[C@H](Cc2c[nH]c3ccccc23)NC(=O)[C@H](CCCNC(=N)N)N(C)C(=O)[C@@H](Cc2ccc3ccccc3c2)NC(=O)[C@@H]2CCCN2C(=O)[C@H](Cc2c[nH]c3ccccc23)NC(=O)[C@@H]2CSSC[C@H](NC1=O)C(=O)N[C@@H](Cc1c[nH]cn1)C(=O)N[C@H](Cc1ccccc1)C(=O)N[C@@H](CCCNC(=N)N)C(=O)N[C@@H](Cc1c[nH]c3ccccc13)C(=O)N[C@@H](C)C(=O)N2	204	407	13.5	1.55	31.6	1.05	7.94	9.77
CC[C@H](C)[C@@H]1NC(=O)[C@@H]2CCCN2C(=O)[C@H](Cc2c[nH]c3ccccc23)NC(=O)[C@H](CCCNC(=N)N)N(C)C(=O)[C@@H](Cc2ccccc2)NC(=O)[C@H](Cc2c[nH]cn2)NC(=O)[C@H]([C@@H](C)O)NC(=O)[C@@H]2CSSC[C@H](NC1=O)C(=O)N[C@@H](Cc1c[nH]cn1)C(=O)N[C@H](Cc1ccccc1)C(=O)N[C@@H](CCCNC(=N)N)C(=O)N[C@@H](Cc1c[nH]c3ccccc13)C(=O)N[C@@H](CCCNC(=N)N)C(=O)N2	174	389	7.76	0.135				1.12
CC[C@H](C)[C@@H]1NC(=O)[C@@H]2CCCN2C(=O)[C@@H]2CCCN2C(=O)[C@H]([C@@H](C)CC)NC(=O)[C@H](CO)NC(=O)[C@H](C)NC(=O)[C@H]([C@@H](C)O)NC(=O)[C@@H]2CSSC[C@H](NC1=O)C(=O)N[C@@H](Cc1c[nH]cn1)C(=O)N[C@H](Cc1ccccc1)C(=O)N(C)[C@@H](CCCNC(=N)N)C(=O)N(C)[C@@H](Cc1c[nH]c3ccccc13)C(=O)N[C@@H](CCCNC(=N)N)C(=O)N2 (cyclo(CTASIPPICH[dF][NMeR][NMeW]R); disulfide 1-9)	724	> 1000	129	0.759	> 1000	58.9	> 1000	

The remaining compounds from weak to strong by IC50 (Melanocortin receptor 5), led by results:

IC50 (Melanocortin receptor 5) [nM]	Ki (Melanocortin receptor 3 [1]) [nM]	EC50 (Melanocortin receptor 3 [2]) [nM]	EC50 [3] [nM]	EC50 (Melanocortin receptor 4 [4]) [nM]	EC50 (Melanocortin receptor 4 [5]) [nM]	Ki (Melanocortin receptor 4 [6]) [nM]	Ki [7] [nM]	SMILES
174	269	17.4	0.138				1.48	CC[C@H](C)[C@@H]1NC(=O)[C@@H]2CCCN2C(=O)[C@H](Cc2c[nH]c3ccccc23)NC(=O)[C@H](CCCNC(=N)N)NC(=O)[C@@H](Cc2ccccc2)NC(=O)[C@H](Cc2c[nH]cn2)NC(=O)[C@H]([C@@H](C)O)NC(=O)[C@@H]2CSSC[C@H](NC1=O)C(=O)N[C@@H](Cc1c[nH]cn1)C(=O)N[C@H](Cc1ccccc1)C(=O)N[C@@H](CCCNC(=N)N)C(=O)N[C@@H](Cc1c[nH]c3ccccc13)C(=O)N[C@@H](CCCNC(=N)N)C(=O)N2
170	107	1.15	0.0912	1.23	0.132	25.7	1.41	CC[C@H](C)[C@@H]1NC(=O)[C@H](C)NC(=O)[C@H](Cc2c[nH]c3ccccc23)NC(=O)[C@H](CCCNC(=N)N)N(C)C(=O)[C@@H](Cc2ccccc2)NC(=O)[C@H](Cc2c[nH]cn2)NC(=O)[C@H]([C@@H](C)O)NC(=O)[C@@H]2CSSC[C@H](NC1=O)C(=O)N[C@@H](Cc1c[nH]cn1)C(=O)N[C@H](Cc1ccccc1)C(=O)N[C@@H](CCCNC(=N)N)C(=O)N[C@@H](Cc1c[nH]c3ccccc13)C(=O)N[C@@H](C)C(=O)N2
162	380	20	3.63	2.57	0.457	10.2	19.5	CC[C@H](C)[C@@H]1NC(=O)[C@@H]2CCCN2C(=O)[C@H](Cc2c[nH]c3ccccc23)NC(=O)[C@H](CCCNC(=N)N)N(C)C(=O)[C@@H](Cc2ccccc2)NC(=O)[C@H](Cc2c[nH]cn2)NC(=O)[C@H]([C@@H](C)O)NC(=O)[C@@H]2CSSC[C@H](NC1=O)C(=O)N[C@@H](C)C(=O)N[C@H](Cc1ccccc1)C(=O)N[C@@H](CCCNC(=N)N)C(=O)N[C@@H](Cc1c[nH]c3ccccc13)C(=O)N[C@@H](CCCNC(=N)N)C(=O)N2
129	100	15.8	1.32				3.72	CC[C@H](C)[C@@H]1NC(=O)[C@@H]2CCCN2C(=O)[C@H](Cc2c[nH]c3ccccc23)NC(=O)[C@H](CCCNC(=N)N)N(C)C(=O)[C@@H](Cc2ccc3ccccc3c2)NC(=O)[C@@H]2CCCN2C(=O)[C@@H]2CCCN2C(=O)[C@@H]2CSSC[C@H](NC1=O)C(=O)N[C@@H](Cc1c[nH]cn1)C(=O)N[C@H](Cc1ccccc1)C(=O)N[C@@H](CCCNC(=N)N)C(=O)N[C@@H](Cc1c[nH]c3ccccc13)C(=O)N[C@@H](C)C(=O)N2
89.1	50.1	2.19	> 0.0501	2.69	0.275	8.13	0.724	CC[C@H](C)[C@@H]1NC(=O)[C@@H]2CCCN2C(=O)[C@H](Cc2c[nH]c3ccccc23)NC(=O)[C@H](CCCNC(=N)N)N(C)C(=O)[C@@H](Cc2ccccc2)NC(=O)[C@H](Cc2c[nH]cn2)NC(=O)[C@H]([C@@H](C)O)NC(=O)[C@@H]2CSSC[C@H](NC1=O)C(=O)N[C@@H](Cc1c[nH]cn1)C(=O)N[C@H](Cc1ccccc1)C(=O)N[C@@H](CCCNC(=N)N)C(=O)N[C@@H](Cc1ccc3ccccc3c1)C(=O)N[C@@H](C)C(=O)N2
